Calls of active or inactive are those of the source.
What was measured:
Assay type in all cases: functional, organism-based
Settings in all cases: time 9.0 day
[1] = test system: Mus musculus; experiment: Anti-Cryptococcal activity against Cryptococcus neoformans infected pneumonia and encephalitis C57BL/6J mouse model assessed as reduction in pneumonia symptoms at 8 mg/kg, iv administered once a day for 9 days and measured at 24 hrs at last post-dosage
[2] = test system: Mus musculus; experiment: Anti-Cryptococcal activity against Cryptococcus neoformans infected pneumonia and encephalitis C57BL/6J mouse model assessed as increase in body weight at 8 mg/kg, iv administered once a day for 9 days
[3] = test system: Mus musculus; experiment: Anti-Cryptococcal activity against Cryptococcus neoformans infected pneumonia and encephalitis C57BL/6J mouse model assessed as improvement in clinical symptoms at 8 mg/kg, iv administered once a day for 9 days
[4] = test system: Mus musculus; experiment: Anti-Cryptococcal activity against Cryptococcus neoformans infected pneumonia and encephalitis C57BL/6J mouse model assessed as reduction in brain edema at 8 mg/kg, iv administered once a day for 9 days and measured at 24 hrs at last post-dosage

Measured: Activity

OC(Cn1cncn1)(Cn1cncn1)c1ccc(F)cc1F
active: all assays above

Reference: ChEMBL document CHEMBL5046265, “Synthesis of Hemiprotonic Phenanthroline-Phenanthroline+ Compounds with both Antitumor and Antimicrobial Activity” (J Med Chem, 2022)
